“And” between values parts separate entries of the source, which are not always exact repeats. Equal values may be shown once. Toxic doses and inconclusive results are not listed.
Tested on: BDF1 mice, P388 leukemia ip, median survival T/C
Assay: NCI In Vivo Anticancer Drug Screen. Data for tumor model P388 Leukemia (intraperitoneal) in B6D2F1 (BDF1) mice
Settings: endpoint: median survival time, higher = longer survival
Method in brief: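 Reported as T/C, where T is the survival measurement in dosed animals and C the same measurement in vehicle controls.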

[1] = dose: 400.0 mg/kg/injection, schedule: Q04DX003 (ip), vehicle: Klucel (hydroxypropylcellulose) (HPC)
[2] = dose: 6.25 mg/kg/injection, schedule: Q01DX009 (ip), vehicle: saline with Tween-80
[3] = dose: 12.5 mg/kg/injection, schedule: Q01DX009 (ip), vehicle: saline with Tween-80
[4] = dose: 25.0 mg/kg/injection, schedule: Q01DX009 (ip), vehicle: saline with Tween-80
[5] = dose: 50.0 mg/kg/injection, schedule: Q01DX009 (ip), vehicle: saline with Tween-80
[6] = dose: 100.0 mg/kg/injection, schedule: Q01DX009 (ip), vehicle: saline with Tween-80
[7] = dose: 200.0 mg/kg/injection, schedule: Q01DX009 (ip), vehicle: saline with Tween-80
[8] = dose: 100.0 mg/kg/injection, schedule: Q01DX001 (ip), vehicle: saline with Tween-80
[9] = dose: 200.0 mg/kg/injection, schedule: Q01DX001 (ip), vehicle: saline with Tween-80
[10] = dose: 16.0 mg/kg/injection, schedule: Q04DX003 (ip), vehicle: saline with Tween-80
[11] = dose: 25.0 mg/kg/injection, schedule: Q04DX003 (ip), vehicle: saline with Tween-80
[12] = dose: 100.0 mg/kg/injection, schedule: Q04DX003 (ip), vehicle: saline
[13] = dose: 200.0 mg/kg/injection, schedule: Q04DX003 (ip), vehicle: saline
[14] = dose: 400.0 mg/kg/injection, schedule: Q04DX003 (ip), vehicle: saline

Structure (SMILES): O=C(CCCCC(=O)Nc1ccc(C2=NCCN2)cc1)Nc1ccc(C2=NCCN2)cc1
- T/C (dose: 3.6 mg/kg/injection, schedule: Q01DX009 (ip), vehicle: Klucel (hydroxypropylcellulose) (HPC)): 104 % of control
- T/C (dose: 5.4 mg/kg/injection, schedule: Q01DX009 (ip), vehicle: Klucel (hydroxypropylcellulose) (HPC)): 100 % of control
- T/C (dose: 65.0 mg/kg/injection, schedule: Q01DX009 (ip), vehicle: Klucel (hydroxypropylcellulose) (HPC)): 168 % of control
- T/C (dose: 100.0 mg/kg/injection, schedule: Q01DX009 (ip), vehicle: Klucel (hydroxypropylcellulose) (HPC)): 190 % of control
- T/C (dose: 100.0 mg/kg/injection, schedule: Q04DX003 (ip), vehicle: other): 111 % of control
- T/C (dose: 132.0 mg/kg/injection, schedule: Q01DX009 (ip), vehicle: Klucel (hydroxypropylcellulose) (HPC)): 204 % of control
- T/C (dose: 200.0 mg/kg/injection, schedule: Q01DX009 (ip), vehicle: Klucel (hydroxypropylcellulose) (HPC)): 225 % of control and 172 % of control and 209 % of control
- T/C (dose: 200.0 mg/kg/injection, schedule: Q04DX003 (ip), vehicle: other): 116 % of control
- T/C (dose: 264.0 mg/kg/injection, schedule: Q04DX003 (ip), vehicle: Klucel (hydroxypropylcellulose) (HPC)): 180 % of control
- T/C (dose: 300.0 mg/kg/injection, schedule: Q01DX009 (ip), vehicle: Klucel (hydroxypropylcellulose) (HPC)): 257 % of control and 213 % of control
- T/C (dose: 400.0 mg/kg/injection, schedule: Q01DX009 (ip), vehicle: Klucel (hydroxypropylcellulose) (HPC)): 100 % of control
- T/C [1]: 225 % of control and 168 % of control
- T/C (dose: 400.0 mg/kg/injection, schedule: Q04DX003 (ip), vehicle: other): 161 % of control

Structure (SMILES): CC12CCC(c3sc(N)c(C#N)c31)C2(C)C (configuration not stated)
- T/C (dose: 1.56 mg/kg/injection, schedule: Q01DX009 (ip), vehicle: saline with Tween-80): 88 % of control
- T/C (dose: 3.13 mg/kg/injection, schedule: Q01DX009 (ip), vehicle: saline with Tween-80): 102 % of control
- T/C [2]: 104 % of control
- T/C [3]: 104 % of control and 121 % of control
- T/C [4]: 104 % of control
- T/C [5]: 118 % of control

Structure (SMILES): O=C(c1ccncc1)c1c(Cc2ccccc2)ccc2ccccc12
- T/C [5]: 92 % of control
- T/C [6]: 96 % of control
- T/C [7]: 90 % of control
- T/C (dose: 400.0 mg/kg/injection, schedule: Q01DX009 (ip), vehicle: saline with Tween-80): 92 % of control

Structure (SMILES): OC1(C2(O)c3ccccc3Oc3ccccc32)c2ccccc2Oc2ccccc21
- T/C (dose: 50.0 mg/kg/injection, schedule: Q01DX001 (ip), vehicle: saline): 95 % of control
- T/C (dose: 100.0 mg/kg/injection, schedule: Q01DX001 (ip), vehicle: saline): 90 % of control
- T/C (dose: 200.0 mg/kg/injection, schedule: Q01DX001 (ip), vehicle: saline): 90 % of control

Structure (SMILES): O=C1c2ccccc2C2N1CCCN2C(=O)c1sc2ccccc2c1Cl (configuration not stated)
- T/C [5]: 88 % of control
- T/C [6]: 86 % of control
- T/C [7]: 94 % of control

Structure (SMILES): O=[N+]([O-])c1ccc(N2[C@@H]3C4CCC([C@@H]32)C42OCCO2)cc1
- T/C (dose: 50.0 mg/kg/injection, schedule: Q01DX001 (ip), vehicle: saline with Tween-80): 93 % of control
- T/C [8]: 118 % of control
- T/C [9]: 93 % of control

Structure (SMILES): O=[n+]1c2c(n([O-])c3ccccc31)-c1cccc3cccc-2c13
- T/C (dose: 25.0 mg/kg/injection, schedule: Q01DX010 (ip), vehicle: saline): 95 % of control
- T/C (dose: 50.0 mg/kg/injection, schedule: Q01DX010 (ip), vehicle: saline): 91 % of control
- T/C (dose: 100.0 mg/kg/injection, schedule: Q01DX010 (ip), vehicle: saline): 91 % of control

Structure (SMILES): CCC(C)P(=O)(N1CC1)N1CC1 (configuration not stated)
- T/C (dose: 37.5 mg/kg/injection, schedule: Q04DX003 (ip), vehicle: saline): 108 % of control

Structure (SMILES): CCOc1cc(C=Nc2cc(Cl)c(O)c(Cl)c2)ccc1N(CCCl)CCCl
- T/C [10]: 154 % of control
- T/C (dose: 16.5 mg/kg/injection, schedule: Q04DX003 (ip), vehicle: saline with Tween-80): 157 % of control
- T/C [11]: 173 % of control
- T/C (dose: 37.5 mg/kg/injection, schedule: Q04DX003 (ip), vehicle: saline with Tween-80): 207 % of control

Structure (SMILES): Oc1ccc(Nc2c3ccccc3nc3c2ccc2ccccc23)cc1CN(CCCl)CCCl
- T/C (dose: 0.08 mg/kg/injection, schedule: Q01DX009 (ip), vehicle: saline): 100 % of control
- T/C (dose: 0.12 mg/kg/injection, schedule: Q01DX009 (ip), vehicle: saline): 90 % of control
- T/C (dose: 0.51 mg/kg/injection, schedule: Q01DX009 (ip), vehicle: saline): 168 % of control
- T/C (dose: 0.52 mg/kg/injection, schedule: Q01DX009 (ip), vehicle: saline): 110 % of control
- T/C (dose: 1.02 mg/kg/injection, schedule: Q01DX009 (ip), vehicle: saline): 100 % of control
- T/C (dose: 1.1 mg/kg/injection, schedule: Q01DX009 (ip), vehicle: saline): 163 % of control
- T/C (dose: 1.17 mg/kg/injection, schedule: Q01DX009 (ip), vehicle: saline): 100 % of control
- T/C (dose: 1.56 mg/kg/injection, schedule: Q01DX009 (ip), vehicle: saline): 109 % of control
- T/C (dose: 1.65 mg/kg/injection, schedule: Q04DX003 (ip), vehicle: saline): 159 % of control
- T/C (dose: 2.1 mg/kg/injection, schedule: Q04DX003 (ip), vehicle: saline): 100 % of control
- T/C (dose: 2.34 mg/kg/injection, schedule: Q01DX009 (ip), vehicle: saline): 168 % of control

Structure (SMILES): CS(=O)(=O)Nc1ccc(Nc2c3ccccc3nc3ccccc23)cc1
- T/C (dose: 15.0 mg/kg/injection, schedule: Q04DX003 (ip), vehicle: Klucel (hydroxypropylcellulose) (HPC)): 109 % of control
- T/C (dose: 25.0 mg/kg/injection, schedule: Q01DX009 (ip), vehicle: Klucel (hydroxypropylcellulose) (HPC)): 95 % of control
- T/C (dose: 50.0 mg/kg/injection, schedule: Q01DX009 (ip), vehicle: Klucel (hydroxypropylcellulose) (HPC)): 120 % of control
- T/C (dose: 50.0 mg/kg/injection, schedule: Q04DX003 (ip), vehicle: Klucel (hydroxypropylcellulose) (HPC)): 122 % of control
- T/C [12]: 200 % of control and 209 % of control
- T/C (dose: 150.0 mg/kg/injection, schedule: Q04DX003 (ip), vehicle: Klucel (hydroxypropylcellulose) (HPC)): 159 % of control
- T/C (dose: 175.0 mg/kg/injection, schedule: Q04DX003 (ip), vehicle: saline): 237 % of control
- T/C [13]: 204 % of control and 223 % of control
- T/C (dose: 265.0 mg/kg/injection, schedule: Q04DX003 (ip), vehicle: saline): 250 % of control
- T/C [14]: 272 % of control and 95 % of control and 100 % of control

Structure (SMILES): Nc1cccc(NC=O)c1
- T/C [3]: 100 % of control
- T/C [4]: 108 % of control
- T/C [5]: 95 % of control

Structure (SMILES): COc1ccc(NC(=O)Oc2ccc(OC)cc2)cc1
- T/C (dose: 100.0 mg/kg/injection, schedule: Q04DX003 (ip), vehicle: Klucel (hydroxypropylcellulose) (HPC)): 95 % of control
- T/C (dose: 200.0 mg/kg/injection, schedule: Q04DX003 (ip), vehicle: Klucel (hydroxypropylcellulose) (HPC)): 100 % of control
- T/C [1]: 91 % of control

Structure (SMILES): ClCC1CNC(c2ccccc2)O1 (configuration not stated)
- T/C (dose: 12.5 mg/kg/injection, schedule: Q04DX003 (ip), vehicle: saline with Tween-80): 101 % of control
- T/C [11]: 104 % of control

Structure (SMILES): Cc1nc(N2CC2)nc(N2CC2)c1[N+](=O)[O-]
- T/C (dose: 0.62 mg/kg/injection, schedule: Q01DX010 (ip), vehicle: saline): 122 % of control
- T/C (dose: 0.63 mg/kg/injection, schedule: Q01DX010 (ip), vehicle: saline): 100 % of control

Structure (SMILES): O=S(=O)(O)c1cccc2cccc(Cl)c12
- T/C [12]: 100 % of control
- T/C [13]: 95 % of control
- T/C [14]: 100 % of control

Structure (SMILES): C[N+](C)(CC(=O)Nc1ccc(Cl)c(Cl)c1)CC(=O)c1ccc(Cl)c(Cl)c1
- T/C (dose: 400.0 mg/kg/injection, schedule: Q04DX003 (ip), vehicle: saline sonified): 87 % of control

Structure (SMILES): COc1cccc2c(Cl)c(CCl)c(C)nc12
- T/C [2]: 94 % of control
- T/C [3]: 110 % of control
- T/C [4]: 103 % of control
- T/C [5]: 103 % of control
- T/C [6]: 103 % of control

Structure (SMILES): CCCCN1CCN(c2ccc([N+](=O)[O-])c3no[n+]([O-])c23)CC1
- T/C [10]: 121 % of control
- T/C (dose: 32.0 mg/kg/injection, schedule: Q04DX003 (ip), vehicle: saline with Tween-80): 150 % of control
- T/C (dose: 64.0 mg/kg/injection, schedule: Q04DX003 (ip), vehicle: saline with Tween-80): 100 % of control

Structure (SMILES): CCOC(=O)C1(CCOC)CCCCC1=O (configuration not stated)
- T/C [5]: 106 % of control
- T/C [6]: 117 % of control
- T/C [7]: 115 % of control

Structure (SMILES): c1ccc(CCNCc2ccccc2)cc1
- T/C [4]: 100 % of control
- T/C [5]: 100 % of control
- T/C [6]: 100 % of control

Structure (SMILES): CCOC(=O)c1cn(COC)c2nc(SC)nc(NC(C)=O)c2c1=O
- T/C [8]: 105 % of control
- T/C [9]: 90 % of control
- T/C (dose: 400.0 mg/kg/injection, schedule: Q01DX001 (ip), vehicle: saline with Tween-80): 90 % of control
